{"source": "patent US20080118979A1", "about": "“Methods of regulating expression of genes or of gene products using substituted tetracycline compounds” (Paratek Pharmaceuticals, Inc., priority 2006, published 2008)", "key": {"[1]": {"conditions": "Mansuy and Bujard Curr. Op. Neurobiol. 10:593-96; cited from earlier work"}, "[2]": {"system": "tetR, luxCDABE operon under the regulation of the tetA promotor/operator", "experiment": "JE305K+pTetLux1 tet detection system (Klux)", "type": "cell-based", "source_text": "In another embodiment, a tetracycline compound of the invention can be used to regulate transcription of a gene or gene product under the control of a native Tet operator and in the presence of a native TetR in a cell. In one embodiment, the invention pertains to such a cell. For example, JE305K is a strain that has disrupted acrB and waaP genes and comprises a plasmid which contains tetR, and the luxCDABE operon (from P. luminescens) under the regulation of the tetA promotor/operator.\nThe substituted tetracycline compounds were examined in a dose response analysis using the JE305K+pTetLux1 tet detection system. JE305K is a strain that has disrupted acrB and waaP genes. pTetLux1 is a plasmid which contains tetR, and has the luxCDABE operon (from P. luminescens) under the regulation of the tetA promotor/operator. The plasmid was obtained from the University of Turku, Finland."}, "rtTA2-MT2": {"system": "rtTA2-MT2", "experiment": "rtTA-mediated gene activation, luciferase positive cell line MT2", "type": "cell-based", "source_text": "FIGS. 2A-2D show a comparison of doxycycline and 9-t-butyl doxcycline in 34R and MT2 rtTA mutants. FIGS. 2A and 2B show the effect of doxycyline on 34R and MT2 mutants, respectively. FIGS. 2C and 2D show the effect of 9-t-butyl doxycycline on 34R and MT2 mutants, respectively."}, "[3]": {"system": "transactivator fusion protein", "conditions": "as demonstrated in U.S. Pat. No. 5,789,156; cited from earlier work"}}, "data": [{"compound": "C[C@H]1c2cccc(O)c2C(=O)C2=C(O)[C@]3(O)C(=O)C(C(N)=O)=C(O)[C@@H](N(C)C)[C@@H]3[C@@H](O)[C@@H]21", "note": "[doxycycline]", "values": [{"measurement": "penetration of the blood-brain barrier", "setting": "[1]", "result": "limited penetration of the blood-brain barrier"}]}, {"compound": "CCCC#Cc1ccc(O)c2c1C[C@H]1C[C@H]3[C@H](N(C)C)C(O)=C(C(N)=O)C(=O)[C@@]3(O)C(O)=C1C2=O", "values": [{"measurement": "activity in the JE305K+pTetLux1 assay", "setting": "[2]", "result": "active"}]}, {"compound": "5-phenylcarbamate doxcycline", "values": [{"measurement": "activation of rtTA2s-M2 compared with doxycycline", "setting": "rtTA2-MT2", "result": "two fold better activator"}]}, {"compound": "Cc1c2c(c(O)c3c(O)cccc13)C(=O)[C@]1(O)C(=O)C(C(N)=O)=C(O)[C@@H](N(C)C)[C@@H]1C2", "note": "[anhydrotetracycline]", "values": [{"measurement": "strength as inducing agent", "setting": "[3]", "result": "strong inducing agents"}]}]}
